# Reference: US12076304B2, “Compositions comprising 15-HEPE and methods of treating or preventing hematologic disorders, and/or related diseases” (priority 2020, dated 2024)
# Marks after values point to notes of the source that are not given here.
# How the values were obtained:
# Sprague Dawley rats [1] = assay: 26 week oral gavage toxicity study in rats: coagulation; type: in vivo; conditions: 26 weeks; for Fibrinogen (FIB), Mean / Prothrombin Time (PT), Mean / Activated Partial Thromboplastic Time (APTT), Mean: male rats; for Fibrinogen (FIB), Mean: vehicle 2.61; for Prothrombin Time (PT), Mean: vehicle 10.25; for Activated Partial Thromboplastic Time (APTT), Mean: vehicle 12.92; for APTT compared to control / FIB concentration compared to control / PT compared to control: rats
# Procedure: (§1) The test and control items were administered to the appropriate animals by once daily oral gavage 7 days a week for a minimum of 26 weeks. The volume for each animal was based on the most recent body weight measurements. The doses were given using a syringe with attached gavage cannula. The first day of dosing was designated as Day 1. The dosing formulations were removed from the refrigerator and stirred for at least 30 minutes before dosing. The dosing formulations were also stirred continuously during dosing.
# (§2) Sample Collection: Blood was collected via the tail vein unless immediately prior to necropsy, when blood was collected from the orbital sinus under non-recoverable isoflurane anesthesia. Blood was collected in ascending animal order unless samples were collected prior to necropsy where the order of euthanasia was followed. Additional blood samples were obtained (e.g. due to clotting of non-serum samples) if permissible sampling frequency and blood volume were not exceeded. After collection, samples were transferred to the appropriate laboratory for processing. Samples were collected according to the following table.
# Coagulation: A 0.5 mL blood sample was collected using the anticoagulant 3.8% (w/v) trisodium citrate for processing to plasma. To assess coagulation the following coagulation parameters were measured.
# (§3) Animals: The study used male and female Sprague Dawley rats purchased from Charles River UK Limited (Margate, Kent, UK). The target age at the initial dosing was 7-8 weeks. The target weight at the initial dosing was 175-300 g (males) and 120-250 g (females). Each animal was identified using a subcutaneously implanted electronic cylindrical, “glass-sealed” TROVAN microchip.
# rats = conditions: oral once daily, 26 weeks, highest dose tested 1 mg/kg/day; cited from earlier work
# [2] = 0.5% HPMC dosing formulations; same preparation and storage conditions (4° C.); concentrations bracketing those used; cited from earlier work
# Sprague Dawley rats [3] = assay: 26 week oral gavage toxicity study in rats: tolerability, clinical signs; type: in vivo; conditions: 6 g/kg/day oral gavage, replaced with 3 g/kg/day
# Procedure: as §1
# Due to the onset of clinical signs, including hunched posture, erect fur and abnormal gait and body weight loss, animals 3206M, 3515F and 3703F were given a dosing holiday from Day 45 and remaining Group 3 animals were given a dosing holiday from Day 48. Animals will start dosing at the lower dose level (3000 mg/kg/day) from Day 64. The following tables illustrate the treatments (Table 23) and animal groupings (Table 24) that were used in the study.
# Mortality/moribundity checks were made daily. […] Animals were not removed from the cage during observation, unless necessary for identification or confirmation of possible findings.
# Post-dose observations were made regularly throughout the day. […] The onset, intensity, and duration of these signs were recorded; particular attention was paid to the animals during and for the first hour after dosing. […]
# Sprague Dawley rats [4] = assay: 26 week oral gavage toxicity study in rats: haematology; type: in vivo; conditions: 26 weeks; for Red blood cell count (RBC), Mean / Red Cell Distribution Width (RDW), Mean / Reticulocyte count (RETIC), Mean: male rats; for Red blood cell count (RBC), Mean: vehicle 8.38; for Red Cell Distribution Width (RDW), Mean: vehicle 14.98; for Reticulocyte count (RETIC), Mean: vehicle 219.51
# Procedure: as §1, §2
# Hematology: A 0.5 mL blood sample was collected using the anticoagulant K2EDTA. Blood smears were labelled, stained, and stored. The blood smears were analyzed according to the following parameters.
# as §3
# [5] = test system: TGF-β-stimulated intracellular signaling (SMAD2/3 phosphorylation); assay: TGF-β-stimulated SMAD2/3 phosphorylation in LX2 liver stellate cells; type: cell-based, human; conditions: 0 μM to 100 μM for 24 hours, then 30 min TGF-β
# [6] = test system: TGF-β induced epithelial mesenchymal transition (EMT) protein production; assay: TGF-β induced EMT protein production in HepG2 cells; type: cell-based, human; conditions: increasing doses for 1 hour, then 200 pM TGF-β for 48 hours
# Procedure: (§4) The effects of 15-HEPE on TGF-β-induced signaling and cellular responses were determined. To test the effect of 15-HEPE on TGF-β-induced signaling, the activities of 15-HEPE to regulate TGF-β-stimulated Smad2 phosphorylation and nuclear translocation, both of which are key signaling events leading to TGF-β-induced cellular responses, were tested. One important biological activity of TGF-β is transcriptional activation of genes responsible for epithelial-mesenchymal transition (EMT), which is a crucial event in wound healing, tissue fibrosis, and cancer progression. The effect of 15-HEPE on TGFβ-induced epithelial mesenchymal transition related proteins (such as fibronectin, PAI-1, and N-cadherin etc.) expression in HepG2 and LXR cells were assessed. HepG2 cells (human hepatoma cell line) were treated in increasing doses of 15-HEPE stage II in DMEM containing 0.1% of FBS for 1 hour and continually stimulated with or without 200 picomolar (pM) of TGF-β for 48 hours.
# (§5) HepG2 cells (human hepatoma cell line) were treated in increasing doses of 15-HEPE stage II in DMEM containing 0.1% of FBS for 1 hour and continually stimulated with or without 200 picomolar (pM) of TGF-β for 48 hours. The two panels shown in FIG. 18A are two separate experiments run under the same experimental conditions.
# [7] = test system: TβR-II (type II TGF-β receptor); assay: Sucrose density gradient analysis in Mv1Lu cells, TβR-II; type: cell-based, mink; conditions: for translocation and degradation of type II TGF-β receptors: summary of Example 3, free acid or ethyl ester form
# Procedure: (§6) Sucrose gradient ultracentrifugation and confocal microscopy were used to identify 15-HEPE induced microdomain translocation of TGF-β receptors […]. Sucrose density gradient analysis of TGF-β receptors was conducted in the plasma membranes of Mv1Lu cells (mink lung epithelial cell) treated with 100 μM of 15-HEPE and an equal volume of DMSO (dimethyl sulfoxide) at 37° C. for 0, 1, 4, and 24 hours, and the cell lysates from these treated cells were subjected to sucrose density gradient ultracentrifugation. The sucrose gradient fractions were then analyzed by Western blot analysis using anti-Tβ(type I TGF-β receptor), anti-TβR-II (type II TGF-β receptor), anti-TβR-III (type III TGF-β receptor, betaglycan), anti-EGFR (epidermal growth factor receptor), and anti-caveolin-1 antibodies. The lipid raft/caveolae, and non-lipid raft microdomain localization of TβR-I, TβR-II, TβR-III, EGFR and caveolin-1 in the plasma membrane of untreated cells or cells treated with 15-HEPE were assessed to determine the effects of 15-HEPE on the membrane microdomain localization of the TGF-β receptors.
# A 15-HEPE sucrose density gradient analysis of TGF-β receptors was conducted in the plasma membranes of mink lung epithelial cell (Mv1 Lu) cells treated with 100 μM of 15-HEPE and an equal volume of dimethyl sulfoxide (DMSO) at 37° C. for 0, 1, 4, and 24 hours, and the cell lysates from these treated cells were subjected to sucrose density gradient ultracentrifugation. The sucrose gradient fractions were then analyzed by Western blot analysis using anti-TβR-I (type I TGF-β receptor—FIG. 18C), anti-TβR-II (type II TGF-β receptor-FIG. 18D), anti-TβR-III (type III TGF-β receptor, betaglycan-FIG. 18E), anti-EGFR (epidermal growth factor receptor-FIG. 18F), and anti-caveolin-1 antibodies (FIG. 18G). Fractions 4 to 5 contained lipid rafts/caveolae whereas fractions 7-10 were non-lipid raft fractions. […] Stars(*) indicate 15-HEPE increased abundance of TβR-I (24 hours) in the fraction in comparison with that of the control and shorter treatment durations (FIG. 18C). […] The triangles (▾) indicate translocation and decreased abundance of TβR-II in the fraction in comparison with control cells (FIG. 18D).
# [8] = test system: TβR-I (type I TGF-β receptor); assay: Sucrose density gradient analysis in Mv1Lu cells, TβR-I; type: cell-based, mink; conditions: 100 μM
# Procedure: as §6, with “receptors. […]” for “receptors.”
# [9] = test system: EGFR (epidermal growth factor receptor); assay: Sucrose density gradient analysis in Mv1Lu cells, EGFR; type: cell-based, mink; conditions: 100 μM, 0-24 hours
# Procedure: as §6, with “receptors. […]” for “receptors.”
# [10] = test system: TβR-III (type III TGF-β receptor, betaglycan); assay: Sucrose density gradient analysis in Mv1Lu cells, TβR-III; type: cell-based, mink; conditions: 100 μM, 0-24 hours
# Procedure: as §6, with “receptors. […]” for “receptors.”
# type II TGF-β receptor = target: T1, type II TGF-β receptor (Homo sapiens, UniProt P37173); assay: Type II TGF-β receptor degradation in HepG2 cells; type: cell-based; conditions: increasing doses for 1 hour, then 200 pM TGF-β for 48 hours
# T1 construct: endogenous in cells; host or cells: HepG2
# T1 sequence (P37173 23-567): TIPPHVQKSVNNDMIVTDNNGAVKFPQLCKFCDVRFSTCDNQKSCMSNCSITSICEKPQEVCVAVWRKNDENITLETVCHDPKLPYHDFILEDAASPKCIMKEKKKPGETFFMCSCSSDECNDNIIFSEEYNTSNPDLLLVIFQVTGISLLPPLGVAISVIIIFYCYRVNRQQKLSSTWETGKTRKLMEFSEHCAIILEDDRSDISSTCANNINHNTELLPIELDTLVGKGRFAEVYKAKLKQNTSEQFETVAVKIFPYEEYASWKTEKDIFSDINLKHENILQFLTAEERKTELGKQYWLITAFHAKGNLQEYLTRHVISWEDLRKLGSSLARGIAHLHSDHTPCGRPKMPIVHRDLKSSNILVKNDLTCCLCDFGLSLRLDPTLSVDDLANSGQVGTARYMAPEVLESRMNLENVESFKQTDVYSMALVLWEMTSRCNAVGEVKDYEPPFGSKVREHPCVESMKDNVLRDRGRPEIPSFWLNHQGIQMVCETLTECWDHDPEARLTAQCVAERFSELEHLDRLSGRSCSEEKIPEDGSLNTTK
# Procedure: as §4, §5
# caveolin-1 = assay: Sucrose density gradient analysis in Mv1Lu cells, caveolin-1; type: cell-based, mink; conditions: 100 μM, 0-24 hours
# Procedure: as §6, with “receptors. […]” for “receptors.”
# [11] = 6000/3000 mg/kg/day oral gavage
compound,measurement,setting,value
CC/C=C\C[C@H](O)/C=C/C=C\C/C=C\C/C=C\CCCC(=O)OCC [15(S)-HEPE EE],"Fibrinogen (FIB), Mean",Sprague Dawley rats [1]; 2000 mg/kg/day oral gavage,2.35** g/L
same,"Prothrombin Time (PT), Mean",Sprague Dawley rats [1]; 2000 mg/kg/day oral gavage,10.69** sec
same,"Activated Partial Thromboplastic Time (APTT), Mean",Sprague Dawley rats [1]; 2000 mg/kg/day oral gavage,15.03* sec
same,"Fibrinogen (FIB), Mean",Sprague Dawley rats [1]; [11],2.26** g/L
same,"Prothrombin Time (PT), Mean",Sprague Dawley rats [1]; [11],10.81** sec
same,"Activated Partial Thromboplastic Time (APTT), Mean",Sprague Dawley rats [1]; [11],15.73** sec
same,APTT compared to control,Sprague Dawley rats [1]; 2 g/kg/day dose,significant increase
same,FIB concentration compared to control,Sprague Dawley rats [1]; 2 g/kg/day dose,significant decrease
same,PT compared to control,Sprague Dawley rats [1]; 2 g/kg/day dose,significant increase
same,APTT compared to control,Sprague Dawley rats [1]; 3 g/kg/day dose,significant increase
same,FIB concentration compared to control,Sprague Dawley rats [1]; 3 g/kg/day dose,significant decrease
same,PT compared to control,Sprague Dawley rats [1]; 3 g/kg/day dose,significant increase
same,adverse effects at the highest dose tested,rats,no adverse effects
same,stability of the test item in the vehicle,[2],stable
same,tolerability of the highest dose,Sprague Dawley rats [3],not well tolerated
same,"Red blood cell count (RBC), Mean",Sprague Dawley rats [4]; 2000 mg/kg/day oral gavage,8.67 10^∧12/L
same,"Red Cell Distribution Width (RDW), Mean",Sprague Dawley rats [4]; 2000 mg/kg/day oral gavage,13.91** %
same,"Reticulocyte count (RETIC), Mean",Sprague Dawley rats [4]; 2000 mg/kg/day oral gavage,154.60* 10^∧9/L
same,"Red blood cell count (RBC), Mean",Sprague Dawley rats [4]; [11],8.81** 10^∧12/L
same,"Red Cell Distribution Width (RDW), Mean",Sprague Dawley rats [4]; [11],13.60** %
same,"Reticulocyte count (RETIC), Mean",Sprague Dawley rats [4]; [11],141.46** 10^∧9/L
same,RDW compared to control,"Sprague Dawley rats [4]; rats, 2 g/kg/day dose",significant decrease
same,RETIC compared to control,"Sprague Dawley rats [4]; rats, 2 g/kg/day dose",significant decrease
same,RBC compared to control,"Sprague Dawley rats [4]; rats, 3 g/kg/day dose",significant increase
same,RDW compared to control,"Sprague Dawley rats [4]; rats, 3 g/kg/day dose",significant decrease
same,RETIC compared to control,"Sprague Dawley rats [4]; rats, 3 g/kg/day dose",significant decrease
"CC/C=C\C[C@H](O)/C=C/C=C\C/C=C\C/C=C\CCCC(=O)OCC [15-HEPE EE, 15-HEPE ethyl ester]",TGF-β-stimulated intracellular signaling (SMAD2/3 phosphorylation),[5],inhibited
same,TGF-β induced EMT (pro-fibrotic) protein production,[6],blocked
same,translocation and degradation of type II TGF-β receptors,[7],induced translocation and degradation
"CC/C=C\CC(O)/C=C/C=C\C/C=C\C/C=C\CCCC(=O)O (stereo not shown) [15-HEPE, 15-hydroxy-eicosa-5Z,8Z,11Z,13E,17Z-pentaenoic acid]",abundance of TβR-I proteins,"[8]; 37° C., 0, 1, 4, 24 hours",did not affect
same,translocation of TβR-I to lipid-raft,[8]; 24 hours treatment,induced translocation
same,TGF-β-stimulated intracellular signaling (SMAD2/3 phosphorylation),[5],inhibited
same,localization and abundance of EGFR,[9],did not change
same,TGF-β induced EMT (pro-fibrotic) protein production,[6],blocked
same,TβR-II degradation,"[7]; Mv1Lu cells, 100 μM, 24 hours treatment",induce degradation
same,TβR-II translocation,"[7]; Mv1Lu cells, 100 μM, from 1 to 4 hours",induced TβR-II translocation
same,translocation and degradation of type II TGF-β receptors,[7],induced translocation and degradation
same,localization and abundance of TβR-III,[10],did not change
same,degradation of type II TGF-β receptor,type II TGF-β receptor,induced degradation
same,localization and abundance of caveolin-1,caveolin-1,did not change
